According to patent publication US20230096766A1, “AMINO ACID HAVING FUNCTIONAL GROUP CAPABLE OF INTERMOLECULAR HYDROGEN BONDING, PEPTIDE COMPOUND CONTAINING SAME AND METHOD FOR PRODUCTION THEREOF” (Chugai Seiyaku Kabushiki Kaisha, priority 2018, published 2023):
Read-outs that look alike come from different tables or passages of the source. *1 amine or outer side, *2 acyl side, *3 side chain or, on linkers, in order; H or OH if unused. Where a SMILES comes first, the peptide text is derived from it. Bridges are numbered along the chain shown (N, C = ends). [ ]: non-standard residue; d: D form. The star is where a group is joined. NMeHph(3-OMe-4-CONHMe) = CNC(=O)c1ccc(CC[C@H](NC)C(=O)O)cc1OC; NMeAla(4-thiazolyl) = CN[C@@H](Cc1cscn1)C(=O)O; Ethyl(2-morpholino) = C1CN(CC*)CCO1; hhPhe = N[C@@H](CCCc1ccccc1)C(=O)O; NMeF = CN[C@@H](Cc1ccccc1)C(=O)O; NMeGABA = CN(CCCC(=O)[*:2])[*:1]; 3Pal = N[C@@H](Cc1cccnc1)C(=O)O; NMeD = CN[C@@H](CC(=O)O)C(=O)O; CH2CONHtBu = CC(C)(C)NC(=O)C*; NMeL = CN[C@@H](CC(C)C)C(=O)O; NMeV = CN[C@H](C(=O)O)C(C)C; NMeAbu = CC[C@H](NC)C(=O)O; NMeA = CN[C@@H](C)C(=O)O; Piperidide = C1CCN(*)CC1; dNMeA = CN[C@H](C)C(=O)O; NBuGly = CCCCNCC(=O)O; NPrGly = CCCNCC(=O)O; Sar = CNCC(=O)O; tBu = CC(C)(C)*

What was measured:
Caco-2 [1] = test: Membrane permeability test of cyclic peptides (Caco-2, modified/improved method of WO 2018/124162)
[2] = as above; settings: human, Caco-2, Caco-2 (cm/sec), membrane permeability of cyclic peptides, Caco-2
[3] = Actual measurement of pKa of amino acid side chains by titration (Sirius T3) on three-residue peptides; type: physicochemical; settings: for pKa / basic pKa: measured by titration (Sirius T3), 25° C., 0.15M; for pKa: amino acid X in three-residue peptide ZMeGly-X-MeGly-pip (Table 24, second part); for basic pKa: amino acid X in three-residue peptide ZMeGly-X-MeGly-pip (Table 24)
Procedure: pKas and basic pKas can be determined by a conventional method. For example, they can be measured by a method such as that described in Experimental Chemistry Lecture 5, “Thermal Measurements and Equilibrium”, p. 460 (edited by The Chemical Society of Japan, published by Maruzen Co., Ltd.). More specifically, they can be measured by a method described in Reference Example 3-1.
Herein, measurement of pKas of amino acid side chains was carried out according to the following procedure.
Sirius T3 (Sirius Analytical Instruments Ltd., Forest Row, East Sussex, RH18 5DW, UK)
0.15 M KCl was added to about 1 mg of a test substance as a powder or in about 100 μL of a 10 mM DMSO solution. When the test substance was a basic compound, 0.5 M HCl was added until pH 2 and the test substance was then titrated to pH 12 with 0.5 M KOH.
When the test substance was an acidic compound, 0.5 M KOH was added until pH 12 and the test substance was then titrated to pH 2 with 0.5 M HCl.
Titration operations were automatically performed by T3 manufactured by Sirius, and pKas were determined from the resulting titration curves using Sirius T3 Refinement software.
pKas were similarly determined using imipramine HCl, propranolol HCl, and warfarin as reference compounds, and were confirmed to be within the test results obtained in Sirius. pKas of amino acid side chains were determined by synthesizing a sequence in which the amino acid to be evaluated is introduced into the second residue (the position X in the following table) of a peptide composed of three residues as shown below.

in vitro = settings: human
Caco-2 [4] = system: Caco-2
[5] = membrane permeability of cyclic peptides, Caco-2
[6] = amino acid side chain, Sirius T3 titration

Row | Compound | Papp (in vitro; Caco-2, Caco-2 (cm/sec)) [×10⁻⁶ cm/s] | Caco-2 (Caco-2 [4]) [cm/s] | also measured
1 | CCCN1CC(=O)N(C)[C@@H](CC(C)C)C(=O)N[C@@H](CC(C)C)C(=O)N(C)[C@@H](Cc2ccccc2)C(=O)N(C)[C@@H](C)C(=O)N[C@H](C(=O)N2CCCCC2)CC(=O)N[C@H](CC(C)C)C(=O)N(C)[C@@H](Cc2ccccc2)C(=O)N[C@@H](COCC(=O)NC(C)(C)C)C(=O)N(C)[C@@H](CC(C)C)C(=O)N[C@@H]([C@@H](C)O)C1=O [AP11] ([dL][NMeF]S(CH2CONHtBu)[NMeL]T[NPrGly][NMeL]L[NMeF][NMeA]D-Piperidide; lactam N-11) |  |  | Caco-2 (Caco-2 [1]; [5]): 1.1e-06 cm/s
2 | CNC(=O)c1ccc(CC[C@H]2C(=O)N[C@@H]([C@@H](C)O)C(=O)N(C)CC(=O)N(C)[C@@H](CC(C)C)C(=O)N[C@@H](CC(C)C)C(=O)N(C)[C@@H](Cc3ccccc3)C(=O)N(C)[C@@H](CC(C)C)C(=O)N[C@H](C(=O)N3CCCCC3)CC(=O)N[C@H](C(C)C)C(=O)N(C)[C@@H](CC(C)C)C(=O)N[C@@H](C(C)C)C(=O)N2C)cc1OC [AP226] ([dV][NMeL]V[NMeHph(3-OMe-4-CONHMe)]T[Sar][NMeL]L[NMeF][NMeL]D-Piperidide; lactam N-11) |  |  | Papp [2]: 0.57 ×10⁻⁶ cm/s; Caco-2 (Caco-2 [1]; [5]): 1e-06 cm/s
3 | CS(=O)(=O)NC(=O)CC[C@H](N)C(=O)O [Gln(Ms)] |  |  | measured pKa [3, 6]: 3.8
4 | CN[C@@H](CCc1noc(=O)[nH]1)C(=O)O [MeAbu(5-Oxo-Odz)] |  |  | pKa [3]: 5.7
5 | CN[C@@H](CCN1CCOCC1)C(=O)O [MeAbu(Mor)] |  |  | basic pKa [3]: 6.8
6 | CN[C@@H](CCN1CCCC(F)(F)C1)C(=O)O [MeAbu(pip-3-F2)] |  |  | pKa [3]: 5.7
7 | CN[C@@H](CCN1CCC(F)(F)CC1)C(=O)O [MeAbu(pip-4-F2)] |  |  | basic pKa [3]: 6.7
8 | CC(C)(CO)COC[C@H](N)C(=O)O [Ser(2-Me2-PrOH), O-(3-hydroxy-2,2-dimethylpropyl)-L-serine] |  |  | membrane permeability compared with counterpart peptides (Caco-2 [1]; pairwise comparison of matched cyclic peptides, result in words): tended to have better membrane permeability than Ser(nPrOH)
9 | N[C@@H](COCCN1CCOCC1)C(=O)O [Ser(Et-2-Mor)] |  |  | basic pKa [3]: 7.2
10 | CN(C)CCOC[C@H](N)C(=O)O [Ser(Et-2-NMe2)] |  |  | measured basic pKa [3, 6]: 9.1
11 | CC(C)C[C@H]1C(=O)N[C@@H](CCCc2ccccc2)C(=O)N(C)[C@@H](Cc2ccccc2)C(=O)N(C)[C@@H](C(C)C)C(=O)N[C@H](C(=O)N2CCCCC2)CC(=O)N[C@H](C)C(=O)N(C)[C@@H](Cc2ccccc2)C(=O)N[C@@H](C(C)C)C(=O)N(C)[C@@H](CC(C)C)C(=O)N[C@@H]([C@@H](C)O)C(=O)N(C)CC(=O)N1C [pd193] ([dA][NMeF]V[NMeL]T[Sar][NMeL][hhPhe][NMeF][NMeV]D-Piperidide; lactam N-11) | 1 | 1e-06 | 
12 | CCCN1CC(=O)N(C)[C@@H](CC(C)C)C(=O)N[C@@H](COC(C)(C)C)C(=O)N(C)[C@@H](Cc2ccccc2)C(=O)N(C)[C@@H](Cc2ccccc2)C(=O)N[C@H](C(=O)N2CCCCC2)CC(=O)N[C@H](C)C(=O)N(C)[C@@H](Cc2ccccc2)C(=O)N[C@@H](C(C)C)C(=O)N(C)[C@@H](CC(C)C)C(=O)N[C@@H]([C@@H](C)O)C1=O [pd194] ([dA][NMeF]V[NMeL]T[NPrGly][NMeL]S(tBu)[NMeF][NMeF]D-Piperidide; lactam N-11) | 5.3 | 5.3e-06 | 
13 | CCCN1CC(=O)N(C)[C@@H](Cc2ccccc2)C(=O)N[C@@H]([C@@H](C)CC)C(=O)N(C)[C@@H](Cc2ccccc2)C(=O)N[C@@H]([C@@H](C)O)C(=O)N(C)CC(=O)N(C)[C@@H](Cc2ccccc2)C(=O)N(C)[C@@H](CC(C)C)C(=O)N[C@@H](COC(C)(C)C)C(=O)N(C)[C@@H](C(C)C)C(=O)N[C@H](C(=O)N2CCCCC2)CC1=O [pd195] ([NPrGly][NMeF]I[NMeF]T[Sar][NMeF][NMeL]S(tBu)[NMeV]D-Piperidide; lactam N-11) | 5 | 5e-06 | 
14 | CC(C)C[C@@H]1NC(=O)[C@H](Cc2ccccc2)N(C)C(=O)[C@@H]2CCCN2C(=O)C[C@@H](C(=O)N2CCCCC2)N(C)C(=O)[C@H](Cc2ccccc2)N(C)C(=O)[C@H](Cc2ccccc2)N(C)C(=O)[C@H](COC(C)(C)C)NC(=O)[C@H](C(C)C)N(C)C(=O)CN(C)C(=O)[C@H]([C@@H](C)O)NC(=O)[C@H](CC(C)C)N(C)C1=O [pd196] (P[NMeF]L[NMeL]T[Sar][NMeV]S(tBu)[NMeF][NMeF][NMeD]-Piperidide; lactam N-11) | 4 | 4e-06 | 
15 | CC(C)C[C@@H]1NC(=O)[C@H](Cc2ccccc2)N(C)C(=O)[C@H](C)N(C)C(=O)C[C@@H](C(=O)N2CCCCC2)NC(=O)[C@H](C(C)C)N(C)C(=O)[C@H](Cc2ccccc2)N(C)C(=O)[C@H](COC(C)(C)C)NC(=O)[C@H](CC(C)C)N(C)C(=O)CN(C)C(=O)[C@H](Cc2cccnc2)NC(=O)[C@H](CC(C)C)N(C)C1=O [pd197] ([NMeA][NMeF]L[NMeL][3Pal][Sar][NMeL]S(tBu)[NMeF][NMeV]D-Piperidide; lactam N-11) | 3 | 3e-06 | 
16 | CC(C)C[C@H]1C(=O)N(C)[C@@H](C(C)C)C(=O)N[C@@H](Cc2ccccc2)C(=O)N[C@H](C(=O)N(C)[C@@H](Cc2ccccc2)C(=O)N[C@@H](C)C(=O)N2CCCCC2)CC(=O)N(C)CCCC(=O)N[C@@H](C(C)C)C(=O)N(C)[C@@H](CC(C)C)C(=O)N[C@@H]([C@@H](C)O)C(=O)N(C)[C@@H](Cc2ccccc2)C(=O)NCC(=O)N1C [pd198] ([NMeGABA]V[NMeL]T[NMeF]G[NMeL][NMeV]FD[NMeF]A-Piperidide; lactam N-10) | 2.7 | 2.7e-06 | 
17 | CC(C)C[C@@H]1NC(=O)[C@H](Cc2ccccc2)N(C)C(=O)[C@@H](C)N(C)C(=O)C[C@@H](C(=O)N2CCCCC2)N(C)C(=O)[C@H](Cc2ccccc2)N(C)C(=O)[C@H](Cc2ccccc2)N(C)C(=O)[C@H](COC(C)(C)C)NC(=O)[C@H](C(C)C)N(C)C(=O)CN(C)C(=O)[C@H]([C@@H](C)O)NC(=O)[C@H](CC(C)C)N(C)C1=O [pd199] ([dNMeA][NMeF]L[NMeL]T[Sar][NMeV]S(tBu)[NMeF][NMeF][NMeD]-Piperidide; lactam N-11) | 2.6 | 2.6e-06 | 
18 | CC(C)C[C@@H]1NC(=O)[C@H](Cc2ccccc2)N(C)C(=O)[C@H]2CCCN2C(=O)C[C@@H](C(=O)N2CCCCC2)N(C)C(=O)[C@H](Cc2ccccc2)N(C)C(=O)[C@H](Cc2ccccc2)N(C)C(=O)[C@H](COC(C)(C)C)NC(=O)[C@H](C(C)C)N(C)C(=O)CN(C)C(=O)[C@H]([C@@H](C)O)NC(=O)[C@H](CC(C)C)N(C)C1=O [pd200] ([dP][NMeF]L[NMeL]T[Sar][NMeV]S(tBu)[NMeF][NMeF][NMeD]-Piperidide; lactam N-11) | 2.6 | 2.6e-06 | 
19 | CC(C)C[C@@H]1NC(=O)[C@H](Cc2ccccc2)N(C)C(=O)[C@H](C)N(C)C(=O)C[C@@H](C(=O)N2CCCCC2)NC(=O)[C@H](CC(C)C)N(C)C(=O)[C@H](Cc2ccccc2)N(C)C(=O)[C@H](Cc2ccccc2)NC(=O)[C@H](Cc2cscn2)N(C)C(=O)[C@H](C)N(C)C(=O)[C@H](CC(C)C)N(C)C(=O)[C@H]([C@@H](C)O)NC1=O [pd238] ([NMeA][NMeF]LT[NMeL][NMeA][NMeAla(4-thiazolyl)]F[NMeF][NMeL]D-Piperidide; lactam N-11) |  |  | Papp (in vitro; Caco-2, Caco-2 (cm/sec) Papp): 0.096 ×10⁻⁶ cm/s; Caco-2 (cm/sec) Papp (Caco-2 [4]; human): 8.8e-08 cm/s
20 | CCCCN1CC(=O)N(C)[C@@H](CC(C)C)C(=O)N[C@H](C(=O)N2CCCCC2)CC(=O)N(C)[C@@H](CC)C(=O)N[C@@H](CC(C)C)C(=O)N(C)[C@@H](CC(C)C)C(=O)N(C)[C@@H](Cc2ccccc2)C(=O)N[C@@H](COCCN2CCOCC2)C(=O)N(C)[C@@H](CC)C(=O)N(C)[C@@H](CC(C)C)C(=O)N[C@@H]([C@@H](C)O)C1=O [pd482] ([NMeAbu]L[NMeL][NMeF]S(Ethyl(2-morpholino))[NMeAbu][NMeL]T[NBuGly][NMeL]D-Piperidide; lactam N-11) |  |  | Caco-2 (Caco-2 [1]; Papp, membrane permeability, cyclic peptides comprising MeAbu(pip-4-F2), MeAbu(Mor), Ser(Et-2-Mor), MeAbu(pip-3-F2) or Abu(5-Oxo-Odz) (Table 29)): 1.1e-06 cm/s
